Experimental data: US11465978B2, “Anthranilic amides and the use thereof” (THE ADMINISTRATORS OF THE TULANE EDUCATIONAL FUND, priority 2013, dated 2022)

How the values were obtained:
MDA-MB 231 cells = assay: Morphology (mesenchymal to epithelial phenotype) during proliferation testing; assay type: cell-based
Protocol: Proliferation studies were conducted using MDA-MB 231 cells, as they express the triple negative cancer phenotype. Compound 3 was selected due to its potency in inhibition of both MEK1/2 and MEK5. MDA-MB 231 cells were plated at 10,000 cells per well in a 96 well TC plate in 5% Charcoal-Dextran stripped media and incubated overnight at 37° C. in 5% CO2. The cells were treated with drug or vehicle the following day. Plates were harvested on days 3, 5 and 7 and stained with Crystal Violet. […] The cells were washed, lysed, and the absorbance of Crystal Violet sequestered in living cells was determined at […]. Wells were conducted in duplicate. Experiments were run in triplicate. Cells were normalized to initial cell count.
Examination of the MDA-MB 231 cells during the proliferation testing period was conducted. Untreated (DMSO) cells retained an elongated spiky cellular morphology characteristic of the mobile and invasive mesenchymal phenotype. […] The observed phenotypic conversion persisted for 14 days without reversion back to the mesenchymal phenotype, see FIG. 12.

MDA-MB-231 xenograft = assay: Animal xenograft study, tumor volume; assay type: in vivo, SCID/beige female mice; settings: SCID female mice, 1×10^6 MDA-MB231 cells bilaterally, 25 mg/kg on day 0, 30 days
Protocol: End point tumor volume for SCID female mice injected bilaterally with 1×10^6 MDA-MB231 cells, n=10. Animals were treated on day 0 (cell injection day) with either DMSO or SC-1-151 (25 mg/kg). Tumor size was measured biweekly for 30 days using a digital caliper. Bars represent final average tumor volume±SEM.
Immune-compromised SCID/beige female mice (29-32 days old) were obtained from Charles River Laboratories (Wilmington, Mass.). The animals were allowed a period of adaptation in a sterile and pathogen-free environment with food and water ad libitum. Breast cancer cells MDA-MB-231 were grown in 5% FBS charcoal-stripped DMEM for five days then harvested. Viable cells were mixed with PBS and Matrigel Reduced Factors (BD Biosciences, San Jose, Calif.). Injections (1×10^6 cells/injection) were made bilaterally into the mammary fat pad on day 0 (May 7, 2013). All the procedures in animals were carried out under anesthesia using a mix of isoflurane and oxygen delivered by mask. Animals were treated on day 0 with either DMSO or SC-1-151 (25 mg/kg). Tumor size was measured biweekly for 30 days using a digital caliper. Tumor volume was calculated using the following formula: 4/3πLM^2, where L is the larger radius and M is the smaller radius. On day 31, tumors were excised and blocked in OCT compound. Mice were monitored daily to insure survival after the surgery. […]

Mia-PaCa2 cells = assay: Crystal violet morphology of pancreatic cancer cells; assay type: cell-based; settings: Mia-PaCa2, 3 days
Protocol: (A) Mia-PaCa2 cells were seeded in a 96-well plate at a density of 1,000 cells per well and treated with vehicle (DMSO) and SC-1-151. After 3 days, cells were fixed with glutaraldehyde and stained with crystal violet. (B) qPCR for EMT-regulating genes following SC-1-151 treatment. Pancreatic cancer cells were grown in 5% CS phenol free DMEM for 48 hours before treatment with vehicle (DMSO) or SC-1-151 (1 μM) for 24 hours. Cycle number was normalized to R-actin and vehicle-treated cells scaled to 1, n=3.

**Q.** What does the source list for `NC(=O)c1ccc(F)c(F)c1Nc1ccc(I)cc1F` [Compound 3, 3,4-difluoro-2-((2-fluoro-4-iodophenyl)amino)benzamide]?
**A.** conversion of mesenchymal to epithelial cellular morphology (MDA-MB 231 cells): more rounded cellular morphology; persistence of phenotypic conversion without reversion to mesenchymal phenotype (MDA-MB 231 cells): 14 days; conversion of cell phenotype (MDA-MB 231 cells; 10 μM): marked conversion of nearly all cells back to a more rounded phenotype; tumorigenesis in vivo (end point tumor volume) (MDA-MB-231 xenograft): decreases tumorigenesis; phenotype of pancreatic cancer cells (Mia-PaCa2 cells): induces an epithelial phenotype
